According to ChEMBL document CHEMBL4619786, “Discovery of Novel Resorcinol Dibenzyl Ethers Targeting the Programmed Cell Death-1/Programmed Cell Death-Ligand 1 Interaction as Potential Anticancer Agents” (J Med Chem, 2020):
Converted amounts (≈) assume the structure as drawn.

How the values were obtained:
[1] = target: T1, Programmed cell death protein 1/Programmed cell death 1 ligand 1 (Homo sapiens, UniProt Q9NZQ7); assay: Inhibition of human Fc-tagged PD1 N-terminal domain (Leu25 to Gln167 residues) expressed in HEK293 cells/human His-tagged PDL1 (Phe19 to Arg238 residues) expressed in HEK293 cells protein-protein interaction after 40 mins by APC-labeled anti-His antibody/Eu-labeled anti-human IgG based HTRF assay; assay type: cell-based
[2] = target: T1, Programmed cell death protein 1/Programmed cell death 1 ligand 1; assay: Inhibition of human C-terminal Ig-Fc-tagged PD1 (Leu25 to Gln167 residues) expressed in HEK293 cells/human C-terminal epitope-His-tagged PDL1 (Phe19 to Arg238 residues) expressed in HEK293 cells protein-protein interaction preincubated for 15 mins with PDL1 followed by PD1 addition and measured after 15 mins by APC-labeled anti-His antibody/Eu-labeled anti-human IgG based HTRF assay; assay type: cell-based
[3] = target: T1, Programmed cell death protein 1/Programmed cell death 1 ligand 1; assay: Inhibition of human PD1/PDL1 protein-protein interaction by HTRF assay; assay type: protein-complex assay
[4] = test system: MCF7; assay: Cytotoxicity against human MCF7 cells assessed as reduction in cell viability measured after 48 hrs by MTT assay; assay type: functional, cell-based; settings: MCF7, 48 h
[5] = test system: A549; assay: Cytotoxicity against human A549 cells assessed as reduction in cell viability measured after 48 hrs by MTT assay; assay type: functional, cell-based; settings: A549, 48 h
[6] = test system: B16-F10; assay: Cytotoxicity against mouse B16/F10 cells assessed as reduction in cell viability measured after 48 hrs by MTT assay; assay type: functional, cell-based; settings: B16-F10, 48 h
[7] = Solubility of the compound in water; assay type: physicochemical

T1 sequence (Q15116 whole entry, the tested form may be a part): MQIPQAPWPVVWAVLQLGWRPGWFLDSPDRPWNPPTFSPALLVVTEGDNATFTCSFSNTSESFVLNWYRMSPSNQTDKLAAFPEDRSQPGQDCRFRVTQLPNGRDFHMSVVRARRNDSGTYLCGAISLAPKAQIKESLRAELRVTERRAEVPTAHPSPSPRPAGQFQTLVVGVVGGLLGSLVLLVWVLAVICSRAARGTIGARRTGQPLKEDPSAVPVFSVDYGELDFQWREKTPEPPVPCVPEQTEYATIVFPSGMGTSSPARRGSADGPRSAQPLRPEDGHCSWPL
T1 sequence (Q9NZQ7 whole entry, the tested form may be a part): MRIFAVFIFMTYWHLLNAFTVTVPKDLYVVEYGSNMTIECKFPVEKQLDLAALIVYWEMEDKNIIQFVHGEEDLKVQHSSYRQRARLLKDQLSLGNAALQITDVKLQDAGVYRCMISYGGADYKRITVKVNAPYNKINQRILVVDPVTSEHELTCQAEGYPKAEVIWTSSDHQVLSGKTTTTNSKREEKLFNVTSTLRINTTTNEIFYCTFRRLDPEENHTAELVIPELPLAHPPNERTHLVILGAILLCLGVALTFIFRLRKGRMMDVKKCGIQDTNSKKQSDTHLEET

Compound | IC50 [1] [nM] | IC50 [2] [nM] | IC50 [3] [nM] | IC50 [4] [nM] | IC50 [5] [nM] | IC50 [6] [nM] | further results
COc1cc(NC(=O)c2cccc(-c3ccccc3)c2C)ccc1CN1CCN(C(C)=O)CC1 | > 10000 |  |  |  |  |  | 
Cc1c(Nc2cccc3cc(CNCCO)cnc23)cccc1-c1ccccc1 | < 10 |  |  |  |  |  | 
Cc1c(COc2cc(OCc3cccc(C#N)c3)c(CNC(C)(C)C(=O)O)cc2Cl)cccc1-c1ccncc1 |  | > 100 | > 100 |  |  |  | 
Cc1c(COc2ccc3cc(CNCCO)ccc3c2)cccc1-c1ccccc1 | > 10000 |  | > 10000 |  |  |  | 
Cc1c(COc2cc(OCc3cccc(C#N)c3)c(CN3CC[C@H](C(=O)O)C3)cc2Cl)cccc1-c1ccc2c(c1)OCCO2 |  | 7.9 | 7.9 | > 10000 | > 10000 | 10800 | 
Cc1c(COc2cc(OCc3ccnc(C#N)c3)c(CNC(C)(C)C(=O)O)cc2Cl)cccc1-c1ccc2ocnc2c1 |  | 10 |  |  |  |  | 
O=C(NC(Cc1cc(=O)[nH]c2ccccc12)C(=O)O)c1ccc(Cl)cc1 (stereo unspecified) [REBAMIPIDE] |  |  |  |  |  |  | solubility [7]: 7.6 µg/mL (≈ 20.5 µM)
Cc1c(COc2cc(OCc3cccc(C#N)c3)c(CN3CCC(O)C3)cc2Cl)cccc1-c1ccc2c(c1)OCCO2 (stereo unspecified) |  |  | 12.9 | 4400 | 4200 | 2300 | 
Cc1c(COc2cc(OCc3cccc(C#N)c3)c(CN[C@H](CO)C(=O)O)cc2Cl)cccc1-c1ccccc1 |  |  | 8 | > 10000 | > 10000 | > 10000 | 
